Assays:
[1] = target: T1, Adrenergic receptor alpha-1 (Rattus norvegicus, UniProt P15823+P23944+P43140); assay: Displacement of […] from alpha1 adrenergic receptor in rat cortex membrane incubated for 60 mins by competitive radioligand binding assay; format: cell membranes
T1 sequence (P15823 whole entry): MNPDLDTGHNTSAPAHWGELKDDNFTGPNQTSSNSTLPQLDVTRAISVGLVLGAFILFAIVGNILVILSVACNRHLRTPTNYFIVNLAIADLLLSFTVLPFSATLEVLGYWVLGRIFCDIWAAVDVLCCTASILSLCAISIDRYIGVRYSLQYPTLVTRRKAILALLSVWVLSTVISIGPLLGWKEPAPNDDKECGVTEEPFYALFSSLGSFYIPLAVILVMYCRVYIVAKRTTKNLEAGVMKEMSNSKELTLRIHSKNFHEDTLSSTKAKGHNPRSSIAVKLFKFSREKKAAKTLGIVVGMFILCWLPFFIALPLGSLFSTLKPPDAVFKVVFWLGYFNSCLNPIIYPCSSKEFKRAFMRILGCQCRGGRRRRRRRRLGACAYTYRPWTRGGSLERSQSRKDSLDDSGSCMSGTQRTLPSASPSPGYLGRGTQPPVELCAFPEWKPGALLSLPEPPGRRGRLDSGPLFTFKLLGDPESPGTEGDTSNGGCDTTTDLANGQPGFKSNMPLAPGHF
T1 sequence (P23944 whole entry): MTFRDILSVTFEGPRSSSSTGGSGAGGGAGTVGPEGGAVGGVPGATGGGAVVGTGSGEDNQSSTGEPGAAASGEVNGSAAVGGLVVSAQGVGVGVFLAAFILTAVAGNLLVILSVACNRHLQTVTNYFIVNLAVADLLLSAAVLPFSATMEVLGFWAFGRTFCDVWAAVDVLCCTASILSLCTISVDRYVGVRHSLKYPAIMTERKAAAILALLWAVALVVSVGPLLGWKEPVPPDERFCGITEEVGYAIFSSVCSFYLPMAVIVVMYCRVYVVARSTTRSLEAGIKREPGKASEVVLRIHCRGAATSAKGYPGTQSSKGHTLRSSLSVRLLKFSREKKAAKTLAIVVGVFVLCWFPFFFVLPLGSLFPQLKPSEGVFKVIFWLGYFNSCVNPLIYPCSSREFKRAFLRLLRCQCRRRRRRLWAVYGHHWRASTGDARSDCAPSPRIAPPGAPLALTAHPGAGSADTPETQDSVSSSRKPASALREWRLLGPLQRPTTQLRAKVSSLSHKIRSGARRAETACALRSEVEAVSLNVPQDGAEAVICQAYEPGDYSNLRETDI
T1 sequence (P43140 whole entry): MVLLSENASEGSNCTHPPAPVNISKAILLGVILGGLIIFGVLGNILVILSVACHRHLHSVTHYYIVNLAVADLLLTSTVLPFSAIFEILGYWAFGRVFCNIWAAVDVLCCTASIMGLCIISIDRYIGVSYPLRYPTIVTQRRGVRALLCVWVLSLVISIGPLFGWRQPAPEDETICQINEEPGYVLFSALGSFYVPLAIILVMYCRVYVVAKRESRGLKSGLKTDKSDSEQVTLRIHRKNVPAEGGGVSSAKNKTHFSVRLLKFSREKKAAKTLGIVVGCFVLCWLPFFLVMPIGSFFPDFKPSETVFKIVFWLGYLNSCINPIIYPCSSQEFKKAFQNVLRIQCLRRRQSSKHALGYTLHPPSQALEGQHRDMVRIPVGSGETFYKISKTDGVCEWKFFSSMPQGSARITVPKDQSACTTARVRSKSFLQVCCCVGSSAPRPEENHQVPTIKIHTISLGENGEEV

[2] = target: 5-hydroxytryptamine receptor 2B (Homo sapiens, UniProt P41595); assay: Displacement of [3H]-ketanserin from human 5-HT2B receptor by competitive radioligand binding assay
[3] = target: 5-hydroxytryptamine receptor 2A (Homo sapiens, UniProt P28223); assay: Displacement of [3H]-ketanserin from human 5-HT2A receptor by competitive radioligand binding assay
[4] = target: 5-hydroxytryptamine receptor 7 (Rattus norvegicus, UniProt P32305); assay: Displacement of [3H]-CT from rat 5-HT7 receptor expressed in HEK293 cells by competitive radioligand binding assay; format: cell-based
[5] = target: T2, 5-hydroxytryptamine receptor 2C (Homo sapiens, UniProt P28335); assay: Displacement of [3H]-ketanserin from human 5-HT2C receptor by competitive radioligand binding assay
T2 sequence (P28335 whole entry): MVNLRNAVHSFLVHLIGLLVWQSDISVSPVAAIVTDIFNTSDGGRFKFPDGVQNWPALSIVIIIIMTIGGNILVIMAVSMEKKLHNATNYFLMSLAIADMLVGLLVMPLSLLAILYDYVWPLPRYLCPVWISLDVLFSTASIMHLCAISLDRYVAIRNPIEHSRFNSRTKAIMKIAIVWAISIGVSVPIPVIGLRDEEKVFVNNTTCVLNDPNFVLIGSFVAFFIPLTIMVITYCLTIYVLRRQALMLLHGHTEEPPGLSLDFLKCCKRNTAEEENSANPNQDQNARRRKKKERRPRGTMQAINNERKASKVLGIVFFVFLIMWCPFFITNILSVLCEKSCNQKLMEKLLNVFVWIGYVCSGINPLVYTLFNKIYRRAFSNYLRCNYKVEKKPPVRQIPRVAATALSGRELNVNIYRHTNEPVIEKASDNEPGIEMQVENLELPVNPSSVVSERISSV

5-hydroxytryptamine receptor 2A, sequence (P28223 whole entry): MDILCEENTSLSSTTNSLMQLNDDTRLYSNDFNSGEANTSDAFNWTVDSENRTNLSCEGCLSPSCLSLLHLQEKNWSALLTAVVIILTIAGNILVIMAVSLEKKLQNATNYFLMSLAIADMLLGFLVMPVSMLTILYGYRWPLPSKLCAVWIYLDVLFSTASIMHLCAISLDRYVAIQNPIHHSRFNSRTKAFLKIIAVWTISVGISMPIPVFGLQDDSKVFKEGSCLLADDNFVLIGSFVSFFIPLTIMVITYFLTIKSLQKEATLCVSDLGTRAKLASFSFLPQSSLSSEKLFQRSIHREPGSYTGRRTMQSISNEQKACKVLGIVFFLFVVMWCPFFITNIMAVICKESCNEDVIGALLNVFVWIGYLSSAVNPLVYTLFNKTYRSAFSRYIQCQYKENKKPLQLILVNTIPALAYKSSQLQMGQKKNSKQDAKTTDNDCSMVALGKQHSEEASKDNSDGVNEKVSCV
5-hydroxytryptamine receptor 2B, sequence (P41595 whole entry): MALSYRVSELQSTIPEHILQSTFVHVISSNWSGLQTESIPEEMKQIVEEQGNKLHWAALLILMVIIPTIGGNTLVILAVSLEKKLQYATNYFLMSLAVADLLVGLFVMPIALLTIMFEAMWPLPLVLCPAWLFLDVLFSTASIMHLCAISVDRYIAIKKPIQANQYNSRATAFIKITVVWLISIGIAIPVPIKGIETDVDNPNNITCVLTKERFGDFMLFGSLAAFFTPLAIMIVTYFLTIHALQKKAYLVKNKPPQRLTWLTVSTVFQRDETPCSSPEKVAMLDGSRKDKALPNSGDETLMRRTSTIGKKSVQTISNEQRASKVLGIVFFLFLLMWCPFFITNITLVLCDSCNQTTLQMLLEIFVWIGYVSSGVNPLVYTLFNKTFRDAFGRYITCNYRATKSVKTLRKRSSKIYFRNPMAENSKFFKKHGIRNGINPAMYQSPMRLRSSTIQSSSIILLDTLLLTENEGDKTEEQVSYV
5-hydroxytryptamine receptor 7, sequence (P32305 whole entry): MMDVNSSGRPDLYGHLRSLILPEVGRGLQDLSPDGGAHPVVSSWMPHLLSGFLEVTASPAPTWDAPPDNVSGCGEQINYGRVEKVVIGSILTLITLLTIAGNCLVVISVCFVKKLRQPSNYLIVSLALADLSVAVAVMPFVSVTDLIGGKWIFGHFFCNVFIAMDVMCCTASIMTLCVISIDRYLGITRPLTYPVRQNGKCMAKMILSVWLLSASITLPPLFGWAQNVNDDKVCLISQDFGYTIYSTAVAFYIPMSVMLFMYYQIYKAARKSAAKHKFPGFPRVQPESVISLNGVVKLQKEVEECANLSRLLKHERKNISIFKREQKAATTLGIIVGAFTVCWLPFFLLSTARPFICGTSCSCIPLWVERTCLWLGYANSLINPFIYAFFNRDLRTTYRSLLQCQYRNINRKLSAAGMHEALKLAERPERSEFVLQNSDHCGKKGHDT

Question: For `CC(C)n1nc2c(c1-c1ccc(Cl)cc1)CCNCC2`, which Ki [1] is on record?
Answer: Its Ki is 20 nM.

Question: What about the Ki [2] of the same compound?
Answer: The Ki was 1 nM.

Question: What about the Ki [3] of the same compound?
Answer: The Ki was 1 nM.

Question: And the Ki [4]?
Answer: Its Ki is 9 nM.

Question: Which Ki [3] does the source give for `Clc1ccc(-c2nn(Cc3ccccc3)c3c2CCNCC3)cc1` [JNJ-18038683 FREE BASE] here?
Answer: Its Ki is 100 nM.

Question: Which Ki [5] does the source give for `CCn1nc2c(c1-c1ccccc1)CCNCC2` here?
Answer: The Ki was 1200 nM.

Question: What about the Ki [2] of the same compound?
Answer: Its Ki is 75 nM.

Question: And the Ki [3]?
Answer: The Ki was 60 nM.

Question: And the Ki [4]?
Answer: The Ki was 140 nM.

Question: What does the source list for `CC(C)n1nc2c(c1-c1ccc(OC(F)(F)F)cc1)CCNCC2`?
Answer: Ki [5]: 990 nM; Ki [2]: 20 nM; Ki [3]: 40 nM; Ki [4]: 5000 nM

Question: With `c1ccc(-c2c3c(nn2C2CC2)CCNCC3)cc1` as the compound, how does the Ki [1] read?
Answer: Its Ki is 600 nM.

Question: And the Ki [5]?
Answer: Its Ki is 30 nM.

Question: And the Ki [2]?
Answer: The Ki was 20 nM.

Question: And the Ki [3]?
Answer: Its Ki is 30 nM.

Question: What about the Ki [4] of the same compound?
Answer: The Ki was 20 nM.

Question: Which results are given for `CC(C)n1nc2c(c1-c1ccccc1)CCNCC2`?
Answer: Ki [1]: 530 nM; Ki [5]: 130 nM; Ki [2]: 19 nM; Ki [3]: 24 nM; Ki [4]: 28 nM

Question: How did the Ki [3] turn out when `Fc1ccc(-c2c3c(nn2C2CC2)CCNCC3)cc1` was run?
Answer: The Ki was 6 nM.

Question: What does the source list for `CC(C)(C)n1nc2c(c1-c1ccccc1)CCNCC2`?
Answer: Ki [5]: 85 nM; Ki [2]: 43 nM; Ki [3]: 19 nM

Question: Which results are given for `CC(C)n1nc2c(c1-c1ccc(C#N)cc1)CCNCC2`?
Answer: Ki [1]: 240 nM; Ki [5]: 390 nM; Ki [3]: 5 nM; Ki [4]: 90 nM

Question: `Cc1ccc(-c2c3c(nn2C(C)C)CCNCC3)cc1` was tested. Which Ki [1] did it give?
Answer: Its Ki is 4 nM.

Question: And the Ki [2]?
Answer: Its Ki is 2 nM.

Question: And the Ki [3]?
Answer: Its Ki is 1 nM.

Reference: ChEMBL document CHEMBL4673280, “Discovery and SAR studies of 2-alkyl-3-phenyl-2,4,5,6,7,8-hexahydropyrazolo[3,4-d]azepines as 5-HT inhibitors leading to the identification of a clinical candidate” (Bioorg Med Chem Lett, 2021)
